According to patent US12497398B2, “Potent and selective covalent inhibitors of serine-arginine protein kinase (SRPK) 1 and SRPK2 and uses thereof” (DANA-FARBER CANCER INSTITUTE, INC., priority 2020, dated 2025):
Read-outs that look alike come from different tables or passages of the source.

Assays:
SRPK2 = SRPK2 (Homo sapiens, UniProt P78362); assay: Z'-LYTE kinase assay, SRPK2 inhibition; assay type: biochemical
Method: (§1) IC50 values were determined by Z'-LYTE® kinase assay (catalog number PV3193, Invitrogen™) as described in Hatcher et al., Cell Chem. Biol. 25:460-470 (2018).

SRPK1 = SRPK1 (Homo sapiens, UniProt Q96SB4); assay: Z'-LYTE kinase assay, SRPK1 inhibition; assay type: biochemical
Sequence of SRPK1 (Q96SB4 whole entry): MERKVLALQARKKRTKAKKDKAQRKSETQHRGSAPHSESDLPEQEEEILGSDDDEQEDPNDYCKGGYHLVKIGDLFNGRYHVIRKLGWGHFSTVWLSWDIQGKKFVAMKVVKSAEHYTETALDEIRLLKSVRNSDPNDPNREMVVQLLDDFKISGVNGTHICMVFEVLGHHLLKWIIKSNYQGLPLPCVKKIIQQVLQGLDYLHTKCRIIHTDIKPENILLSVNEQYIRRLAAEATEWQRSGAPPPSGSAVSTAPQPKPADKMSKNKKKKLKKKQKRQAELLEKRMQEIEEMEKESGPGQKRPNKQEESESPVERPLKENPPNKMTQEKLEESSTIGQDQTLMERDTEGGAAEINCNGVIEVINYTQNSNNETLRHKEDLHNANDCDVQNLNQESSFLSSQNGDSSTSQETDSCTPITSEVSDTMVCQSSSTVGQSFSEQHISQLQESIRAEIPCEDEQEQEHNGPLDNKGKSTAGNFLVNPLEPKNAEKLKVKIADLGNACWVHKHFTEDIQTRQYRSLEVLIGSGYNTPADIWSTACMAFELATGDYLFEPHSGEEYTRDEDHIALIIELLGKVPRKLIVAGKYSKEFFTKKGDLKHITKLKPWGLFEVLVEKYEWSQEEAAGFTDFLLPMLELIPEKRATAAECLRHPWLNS
Method: as §1

[1] = Z'-LYTE kinase assay, read-out: IC50 (nM) SRPK2
[2] = Z'-LYTE kinase assay, read-out: IC50 (nM) SRPK1

Sequence of SRPK2 (P78362 whole entry): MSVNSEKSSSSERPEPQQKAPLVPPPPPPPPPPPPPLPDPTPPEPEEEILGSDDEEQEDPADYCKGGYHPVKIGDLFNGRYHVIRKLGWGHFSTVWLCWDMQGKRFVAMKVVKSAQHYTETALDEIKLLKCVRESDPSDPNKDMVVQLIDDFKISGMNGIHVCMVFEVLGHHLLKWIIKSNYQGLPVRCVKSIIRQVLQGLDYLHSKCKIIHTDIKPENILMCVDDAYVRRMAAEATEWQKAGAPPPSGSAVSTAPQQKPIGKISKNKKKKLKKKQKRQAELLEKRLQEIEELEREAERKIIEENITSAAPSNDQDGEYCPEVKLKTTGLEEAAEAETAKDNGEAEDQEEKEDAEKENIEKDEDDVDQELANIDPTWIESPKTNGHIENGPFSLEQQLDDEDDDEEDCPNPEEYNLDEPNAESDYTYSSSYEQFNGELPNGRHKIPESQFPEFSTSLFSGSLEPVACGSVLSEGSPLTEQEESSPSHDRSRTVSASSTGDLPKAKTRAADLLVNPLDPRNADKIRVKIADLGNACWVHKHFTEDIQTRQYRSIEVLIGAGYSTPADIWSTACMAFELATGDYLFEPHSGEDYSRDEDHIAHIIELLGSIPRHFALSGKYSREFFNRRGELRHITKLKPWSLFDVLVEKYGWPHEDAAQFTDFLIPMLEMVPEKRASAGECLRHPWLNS

Row | SMILES | IC50 (SRPK2; [1]) [nM] | IC50 (SRPK1; [2]) [nM] | IC50 (SRPK2) [nM] | IC50 (SRPK1) [nM]
1 | CCc1cc2c(=O)c3c4ccc(C#N)cc4[nH]c3n(C(C)C)c2cc1-c1cccc(S(=O)(=O)F)c1 [Compound 1, 3-(8-cyano-2-ethyl-5-isopropyl-11-oxo-6,11-dihydro-5H-indolo[2,3-b]quinolin-3-yl)benzenesulfonyl fluoride] | 9 | 6 |  | 
2 | COc1cc2c(=O)c3c4ccc(C#N)cc4[nH]c3n(C(C)C)c2cc1-c1cccc(S(=O)(=O)F)c1 [Compound 2, 3-(8-cyano-5-isopropyl-2-methoxy-11-oxo-6,11-dihydro-5H-indolo[2,3-b]quinolin-3-yl)benzenesulfonyl fluoride] |  |  | 5 | 4
3 | COc1cc2c(=O)c3c4ccc(C#N)cc4[nH]c3n(C(C)C)c2cc1-c1cncc(S(=O)(=O)F)c1 [Compound 3, 5-(8-cyano-5-isopropyl-2-methoxy-11-oxo-6,11-dihydro-5H-indolo[2,3-b]quinolin-3-yl)pyridine-3-sulfonyl fluoride] | 5 | 6 |  | 
